Structures can show the parent of a compound that is named as a salt.
Tests used:
[1] = test system: enkephalin-degrading aminopeptidase; test: inhibition of brain enzyme degradation of 3H-Leu-enkephalin (solubilized rat brain membrane preparation, TLC); type: biochemical; conditions: 1.0×10^-3 M inhibitor, 5.0×10^-4 M 3H-Leu-enkephalin, 37° C., 1 hour; control 52%
Procedure: The ability of the compounds of the invention to inhibit the brain enzyme degradation of enkephalins was studied in the following test procedure.
Brain enzymes from rats are used in the procedure and for this purpose solubilized rat brain membrane preparation, prepared as follows, is used:
Brains from young male Charles River Co. rats were homogenized in 30 volumes 50 mM Tris pH 7.7 with a Polytron (Brinkmann). The homogenate was centrifuged at 50,000 x g for 15 min. The supernatant was discarded the pellet resuspended in 50 mM Tris pH 7.7 and centrifuged at 50,000 x g for 15 min. The resultant pellet was resuspended, centrifuged and washed 3 additional times as described above. The membrane pellet was solubilized by resuspension in 15 volumes 50 mM Tris pH 7.7, 1% Triton X-100 and incubation at 37° C. for 45 min. […]
This preparation is incubated at 37° C. for 1 hour in the presence of 5.0×10^-4 M ^3 H-Leu-enkephalin in 50 mM tris buffer and 1.0×10^-3 M of the inhibitor to be tested. […] Markers of Leu-enkephalin (LE), tyrosinge (T) and tyrosine-glycine-glucine (TGG) are run with all samples and the relevant areas are scraped into scintillation vials and counted. […]
When N-Me-Tyr-D-Cys-Gly-N-MePhe-Thz-NH2 is tested in this procedure, the percentage of hydrolysis poructs (analyzed by TLC of tagged Leu-enkephalin) is as follows: […]

opiate receptor = opiate receptor affinity, 3H-naloxone displacement in rat brain homogenate (modified Chang); type: binding; conditions: 3H-naloxone displacement (ID50) relative to morphine, with NaCl
[2] = test system: phenylbenozquinone-induced writhing; test: phenylbenzoquinone-induced writhing test (modified Siegmund); type: in vivo; conditions: mice, subcutaneous administration, at 15 minutes; limits (10.9-29.7)
Procedure: Biol. Med., 95, 729-731 (1957). According to this procedure, test compound is administered at various doses to ten mice per dose level. The animals then receive intraperitoneal injection with 0.25 ml of the writhing agonist (a 0.02% solution of benzoquinone) 5 min before the beginning of a pre-selected, 10 min observation period. Typical observation periods include 10 to 20, 25 to 35, 40 to 50 and 55 to 65 min following administration of the test compound. The mice are observed during the observation period for the presence of an all-or-none writhing reaction.
If the compound is active, its dose response and ED50 value are determined according to the method of D. J. Finney (Statistical Methods in Biological Assay, Griffin and Co., London, 1964).

SMILES: CN[C@@H](Cc1ccc(O)cc1)C(=O)N[C@H](CS)C(=O)NCC(=O)N(C)[C@@H](Cc1ccccc1)C(=O)N1CSC[C@H]1C(N)=O [N-Me-Tyr-D-Cys-Gly-N-MePhe-Thz-NH2, N^α -Methyl-L-tyrosyl-D-cysteinyl-glycyl-N-methyl-L-phenylalanyl-L-thiazolidine-4-carboxamide, acetate salt]
- percentage of hydrolysis products: Tyr [1]: 14%
- relative displacement potency as compared to morphine (1) (opiate receptor): 2.6
- ED50 [2]: 18 mg/kg

Source: patent US4380535A, “Enkephalin degrading enzyme inhibitors” (priority 1981, dated 1983)
